Structures can show the parent of a compound that is named as a salt.
Molecular target: T1, recombinant human mPGES-1 (Homo sapiens, UniProt O14684)
T1 construct: made in house; host or cells: Rosetta E. coli (microsomal/membrane fraction)
T1 sequence (O14684 1-152): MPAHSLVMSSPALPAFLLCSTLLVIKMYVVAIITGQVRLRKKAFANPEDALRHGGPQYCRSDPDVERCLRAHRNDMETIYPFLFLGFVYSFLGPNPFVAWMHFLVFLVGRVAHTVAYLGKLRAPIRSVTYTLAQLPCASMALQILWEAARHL
Experiment: mPGES-1 inhibition, HTRF detection of PGE2
Format: biochemical
How it was run: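 PGE2 formed from PGH2 in one minute by E. coli-expressed microsomal enzyme (pH 7.4, 2.5 mM GSH) was measured by competitive HTRF against a synthetic PGE2 standard curve. Compounds were preincubated 25 min at room temperature.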

Compound | inhibition at 10 µM | inhibition at 1 µM
Cn1c(Nc2c(F)cccc2Cl)nc2cc(C(=O)N[C@H]3CC[C@H](C(F)(F)F)CC3)c(OCC(F)F)nc21 [Example 783, 2-(2-Chloro-6-fluoro-phenylamino)-5-(2,2-difluoro-ethoxy)-N-(trans-4-trifluoromethyl-cyclohexyl)-3-methyl-3H-imidazo[4,5-b]pyridine-6-carboxamide] | 100% | 
O=C(N[C@H]1CC[C@H](C(F)(F)F)CC1)c1cc2nc(Nc3c(Cl)cccc3C(F)(F)F)[nH]c2nc1OCC(F)F [Example 778, 2-(2-Chloro-6-trifluoromethyl-phenylamino)-5-(2,2-difluoro-ethoxy)-N-(trans-4-trifluoromethyl-cyclohexyl)-3H-imidazo[4,5-b]pyridine-6-carboxamide] |  | 98%
Cn1c(Nc2c(Cl)cncc2Cl)nc2cc(C(=O)Nc3cc(C(F)(F)F)ccn3)c(OCC(F)F)nc21 [Example 836, 2-(3,5-Dichloro-pyridin-4-ylamino)-5-(2,2-difluoro-ethoxy)-N-(4-trifluoromethyl-pyridin-2-yl)-3-methyl-3H-imidazo[4,5-b]pyridine-6-carboxamide] | 100% | 
CCCC(CCC)NC(=O)c1cnc2c(c1)nc(Nc1c(Cl)cccc1Cl)n2C [Example 473, 2-(2,6-Dichlorophenylamino)-N-(hept-4-yl)-3-methyl-3H-imidazo[4,5-b]pyridine-6-carboxamide] | 99% | 
O=C(Nc1ccc(Br)cc1)c1cc2nc(Nc3c(Cl)cncc3Cl)[nH]c2nc1OC1CCOC1 (stereo not shown) [Example 791, 2-(3,5-Dichloro-pyridin-4-ylamino)-5-(tetrahydrofuran-3-yl-oxy)-N-(4-bromo-phenyl)-3H-imidazo[4,5-b]pyridine-6-carboxamide] | 89% | 
Cn1c(Nc2c(Cl)cncc2Cl)nc2cc(C(=O)NCC(F)(F)C(F)(F)C(F)(F)C(F)(F)F)c(OCC(F)(F)F)nc21 [Example 850, 2-(3,5-Dichloro-pyridin-4-ylamino)-5-(2,2,2-trifluoro-ethoxy)-N-(2,2,3,3,4,4,5,5,5-nonafluoro-pentyl)-3-methyl-3H-imidazo[4,5-b]pyridine-6-carboxamide] | 99% | 
Cn1c(Nc2c(Cl)cncc2Cl)nc2cc(C(=O)Nc3ccc(Br)cc3)c(OC3CCOC3)nc21 (stereo not shown) [Example 848, 2-(3,5-Dichloro-pyridin-4-ylamino)-5-(tetrahydrofuran-3-yl-oxy)-N-(4-bromo-phenyl)-3-methyl-3H-imidazo[4,5-b]pyridine-6-carboxamide] | 100% | 
O=C(NCC(F)(F)C(F)(F)C(F)(F)C(F)(F)F)c1cc2nc(Nc3c(Cl)cc(F)cc3Cl)[nH]c2nc1OCC(F)(F)F [Example 829, 2-(2,6-Dichloro-4-fluoro-phenylamino)-5-(2,2,2-trifluoro-ethoxy)-N-(2,2,3,3,4,4,5,5,5-nonafluoropentyl)-3H-imidazo[4,5-b]pyridine-6-carboxamide] | 100% | 
CC(C)[C@H]1CC[C@H](NC(=O)c2cnc3[nH]c(Nc4c(Cl)cccc4Cl)nc3c2)CC1 [Example 394, 2-(2,6-Dichlorophenylamino)-N-((1r,4r)-4-isopropylcyclohexyl)-3H-imidazo[4,5-b]pyridine-6-carboxamide] | 100% | 
O=C(N[C@H]1CC[C@H](C(F)F)CC1)c1cnc2[nH]c(Nc3c(Cl)cccc3Cl)nc2c1 [Example 535, 2-(2,6-Dichlorophenylamino)-N-((1r,4r)-4-(difluoromethyl)cyclohexyl)-3H-imidazo[4,5-b]pyridine-6-carboxamide] | 100% | 
COc1nc2c(cc1C(=O)Nc1cc(C(F)(F)F)ccn1)nc(Nc1c(Cl)cccc1Cl)n2C [Example 386, 2-(2,6-Dichloro-phenylamino)-5-methoxy-3-methyl-N-(4-trifluoromethyl-pyridin-2-yl)-3H-imidazo[4,5-b]pyridine-6-carboxamide formate] | 99% | 
COCCOc1nc2[nH]c(Nc3c(Cl)cncc3Cl)nc2cc1C(=O)NCc1ccccc1C(F)(F)F [Example 800, 2-(3,5-Dichloro-pyridin-4-ylamino)-5-(2-methoxy-ethoxy)-N-((2-trifluoromethyl-phenyl)-methyl)-3H-imidazo[4,5-b]pyridine-6-carboxamide] | 98% | 
O=C(NCC(F)(F)C(F)(F)C(F)(F)C(F)(F)F)c1cc2nc(Nc3c(Cl)cncc3Cl)[nH]c2nc1OC1CCOC1 (stereo not shown) [Example 792, 2-(3,5-Dichloro-pyridin-4-ylamino)-5-(tetrahydrofuran-3-yl-oxy)-N-(2,2,3,3,4,4,5,5,5-nonafluoro-pentyl)-3H-imidazo[4,5-b]pyridine-6-carboxamide] | 96% | 
O=C(Nc1ccc(Br)cc1)c1cc2nc(Nc3c(Cl)cc(F)cc3Cl)[nH]c2nc1OCC(F)F [Example 822, 2-(2,6-Dichloro-4-fluoro-phenylamino)-5-(2,2-difluoro-ethoxy)-N-(4-bromo-phenyl)-3H-imidazo[4,5-b]pyridine-6-carboxamide] | 100% | 
O=C(NCc1ccccc1C(F)(F)F)c1cc2nc(Nc3c(Cl)cncc3Cl)[nH]c2nc1OCC(F)(F)F [Example 853, 2-(3,5-Dichloro-pyridin-4-ylamino)-5-(2,2,2-trifluoro-ethoxy)-N-(2-trifluoromethyl-benzyl)-3H-imidazo[4,5-b]pyridine-6-carboxamide] | 100% | 
Cn1c(Nc2c(Cl)cc(F)cc2Cl)nc2cc(C(=O)N[C@H]3CC[C@H](C(F)(F)F)CC3)c(OCC(F)F)nc21 [Example 863, 2-(2,6-Dichloro-4-fluoro-phenylamino)-5-(2,2-difluoro-ethoxy)-N-(trans-4-trifluoromethyl-cyclohexyl)-3-methyl-3H-imidazo[4,5-b]pyridine-6-carboxamide] | 82% | 
CC(C)n1c(Nc2c(Cl)cccc2Cl)nc2cc(C(=O)NC3CCC(C)(C)CC3)cnc21 [Example 505, 2-(2,6-Dichlorophenylamino)-N-(4,4-dimethylcyclohexyl)-3-isopropyl-3H-imidazo[4,5-b]pyridine-6-carboxamide] | 100% | 
Cn1c(Nc2ccccc2C(F)(F)F)nc2cc(C(=O)Nc3ccc(Br)cc3)c(OCC(F)F)nc21 [Example 772, N-(4-Bromo-phenyl)-2-(2-trifluoromethyl-phenylamino)-5-(2,2-difluoroethoxy)-3-methyl-3H-imidazo[4,5-b]pyridine-6-carboxamide] |  | 100%
CC1(C)CCCC(NC(=O)c2cnc3[nH]c(Nc4c(Cl)cccc4Cl)nc3c2)C1 (stereo not shown) [Example 469, 2-(2,6-Dichlorophenylamino)-N-(3,3-dimethylcyclohexyl)-3H-imidazo[4,5-b]pyridine-6-carboxamide] | 100% | 
Cn1c(Nc2c(Cl)cncc2Cl)nc2cc(C(=O)NCc3ncccc3C(F)(F)F)c(OC3CCOC3)nc21 (stereo not shown) [Example 847, 2-(3,5-Dichloro-pyridin-4-ylamino)-5-(tetrahydrofuran-3-yl-oxy)-N-((3-trifluoromethyl-pyridin-2-yl)-methyl)-3-methyl-3H-imidazo[4,5-b]pyridine-6-carboxamide] | 100% | 
O=C(Nc1ccc(Cl)c(F)c1)c1cnc2[nH]c(Nc3c(Cl)cccc3Cl)nc2c1 [Example 154, 2-(2,6-Dichloro-phenylamino)-3H-imidazo[4,5-b]-pyridine-6-carboxylic acid (4-chloro-3-fluoro-phenyl)-amide] | 91% | 
Cn1c(Nc2ccccc2C(F)(F)F)nc2cc(C(=O)N[C@H]3CC[C@H](C(F)(F)F)CC3)c(OCC(F)F)nc21 [Example 782, 2-(2-Trifluoromethyl-phenylamino)-5-(2,2-difluoro-ethoxy)-N-(trans-4-trifluoromethyl-cyclohexyl)-3-methyl-3H-imidazo[4,5-b]pyridine-6-carboxamide] | 100% | 
CCCC[C@@H](C)NC(=O)c1cnc2c(c1)nc(Nc1c(Cl)cccc1Cl)n2C [Example 508, (R)-2-(2,6-Dichlorophenylamino)-N-(hexan-2-yl)-3-methyl-3H-imidazo[4,5-b]pyridine-6-carboxamide] | 94% | 
O=C(NCc1ccccc1C(F)(F)F)c1cc2nc(Nc3c(Cl)cc(F)cc3Cl)[nH]c2nc1OCC(F)(F)F [Example 828, 2-(2,6-Dichloro-4-fluoro-phenylamino)-5-(2,2,2-trifluoro-ethoxy)-N-(2-trifluoromethyl-benzyl)-3H-imidazo[4,5-b]pyridine-6-carboxamide] | 98% | 
CN(C)CCOc1nc2[nH]c(Nc3c(Cl)cc(F)cc3Cl)nc2cc1C(=O)N[C@H]1CC[C@H](C(F)(F)F)CC1 [Example 864, 2-(2,6-Dichloro-4-fluoro-phenylamino)-5-(2-dimethylamino-ethoxy)-N-(trans-4-trifluoromethyl-cyclohexyl)-3H-imidazo[4,5-b]pyridine-6-carboxamide] | 91% | 
O=C(N[C@H]1CC[C@H](C(F)(F)F)CC1)c1cc2nc(Nc3c(Cl)cncc3Cl)[nH]c2nc1OCC(F)F [Example 862, 2-(3,5-Dichloro-pyridin-4-ylamino)-5-(2,2-difluoro-ethoxy)-N-(trans-4-trifluoromethyl-cyclohexyl)-3H-imidazo[4,5-b]pyridine-6-carboxamide] | 99% | 
CC(=O)N(C)CCOc1nc2c(cc1C(=O)NCC(F)(F)C(F)(F)C(F)(F)C(F)(F)F)nc(Nc1c(Cl)cncc1Cl)n2C [Example 811, 2-(3,5-Dichloro-pyridin-4-ylamino)-5-(2-(acetyl-methyl-amino)-ethoxy)-N-(2,2,3,3,4,4,5,5,5-nonafluoro-pentyl)-3-methyl-3H-imidazo[4,5-b]pyridine-6-carboxamide] |  | 94%
O=C(Nc1ccc(Br)cc1)c1cc2nc(Nc3ccccc3C(F)(F)F)[nH]c2nc1OCC(F)F [Example 775, N-(4-Bromo-phenyl)-2-(2-trifluoromethyl-phenylamino)-5-(2,2-difluoroethoxy)-3H-imidazo[4,5-b]pyridine-6-carboxamide] |  | 95%
